Reference: patent publication US20200390755A1, “COMPOUND FOR TREATING NERVOUS SYSTEM DISEASES AND USE THEREOF” (SHAANXI MICOT TECHNOLOGY CO., LTD., priority 2018, published 2020)

Columns and labels:
Phospho-Akt S473 = assay: ELISA analysis of Phospho-Akt S473 in primary cortical neuron cells; format: cell-based, mouse; details: 500 nM, 10 min at 37° C.
Procedure: The primary cortical neuron cells were cultured in the same way as in Example 21, and after maturity, appropriate amount of freshly prepared culture medium was added until final volume in each well was 2 mL. The experiment included a blank control group (Vehicle), a positive control group BDNF (10 ng/mL), a control compound group (500 nM), and 6 test compound groups (500 nM). Three repeats were set for each dose. After incubating at 37° C. for 10 min, the culture solution was discarded and the cells were washed with pre-chilled PBS, and then 40 μL of pre-chilled lysate (RIPA buffer 10 mL and protease and phosphatase inhibitor 100 μL) was added to each well for lysis on ice for 30 min. After lysis, the cell was crushed by ultrasonic cell crusher, centrifuged at 14000 rpm for 20 min at 4° C. The supernatant was transferred to a new 1.5 mL centrifuge tube to extract protein. The p-Akt ELISA experiment quantitatively detected the intracellular p-Akt protein level.
A series of p-Akt standard solutions with different concentrations were prepared, and the absorbance value was measured to make a standard curve. Phospho-Akt1 (Ser473) sandwich ELISA kit was purchased from Cell Signaling Technology (catalog number 7160). The antibody was coated in a 96-well plate at 4° C. overnight and was washed. The coated plate was blocked with 2% bovine serum albumin (BSA), and after sufficient washing, 100 μL of sample diluent (supplied in the kit) was added to each well to dilute the extracted protein. The plate was incubated overnight at 4° C. After washing 4 times with 200 μL of washing buffer (supplied in the kit), 100 μL/well of detection antibody was added and the plate was incubated at 37° C. for 1 hour. After 4 washes, 100 μL of HRP-conjugated secondary antibody (supplied in the kit) was added and the plate was incubated at 37° C. for 30 minutes. After the final wash, 100 μL of TMB substrate was added to each well and the plate was incubated at 37° C. for 10 minutes. TMB was use as a substrate to detect the signal, since TMB can be oxidized to produce a blue solution. The reaction was stopped by adding 100 μL/well stop solution, and the test result can remain stable within one hour after the stop of the reaction. The value of each well at 450 nm and 650 nm was detected using a microplate reader. The optical density (OD) was determined by subtracting the reading at 650 nm (disturbance from the solution itself) from the reading at 450 nm. According to the OD value corresponding to the standard curve, the p-Akt concentration in each well was obtained.
the data of each group was expressed as mean standard error (x±SEM). The ratio of the detection results of each positive control group (BNDF), control compound group (the same control compound as in Example 21) and each test compound group to the blank control group was used as an indicator to compare the p-Akt test results of the positive control group, control compound group, and each test compound group. One-way ANOVA and LSD post-hoc test were used to compare the measurement data among multiple groups, and P<0.05 was considered statistically significant.

N171-82Q HD mice = assay: DARPP32 protein level in striatum by Western blotting, HD mice; format: in vivo, mouse; details: 5 mg/kg/d until 25 weeks, WT Vehicle = 100, n = 3
Procedure: 7-week-old N171-82Q HD male mice were paired with female B6C3F1/J hybrid mice to obtain newborn mice. From 21 days of age, male mice were housed in separate cages. 0.5 cm of mouse tail tissue was removed to extract DNA to determine the genotype of the mouse, such that N171-82Q HD mice and WT mice needed for the experiment were obtained. The mice were randomly divided into WT Vehicle group (normal mice), WT test compound group (administration group of normal mice, 5 mg/kg/d, n=10), HD Vehicle group (blank group of HD mice, n=15), HD test compound group (administration groups 1-5 of HD mice, 5 mg/kg/d, n=10). The test compound was suspended in 1% CMC-Na solution and administered by intragastric administration until the end of the study. The weights of the mice were measured every week. Behavioral tests were performed at 12 weeks, 18 weeks, and 24 weeks of age to investigate motor function. At 20 weeks, 3 samples of tissue from each group were used for western blotting and immunohistochemistry. At 24 weeks, MRI scans were performed. At the end of the study, the effect of the test compound on the mortality of mice was evaluated.
Dopamine and cAMP-regulated phosphoprotein (DARPP-32), with a molecular weight of 32 kDa, is a basic component of dopamine signaling cascade. A pathological feature of HD is the massive loss of MSNs which can express high level of DARPP32, in the striatum. Therefore, DARPP32 can be used as a marker of nerve damage and nerve dysfunction in the HD model. After the behavioral evaluation of the mice in each experimental group was completed and the administration continued until 25 weeks, 3 mice were taken from each group to separate hippocampal tissue, striatum, and neurocortex tissue. The total protein in the striatum tissue was extracted, and the protein level of DARPP 32 was detected by Western blotting experiment.
The striatum tissue block was lysed in 100 μL of lysis buffer (RIPA buffer 10 mL, protease inhibitor 100 μL, phosphatase inhibitor 100 μL) on ice for 30 min, and then pulverized with an ultrasonic cell pulverizer, and then centrifuged at 14000 rpm for 20 min at 4° C. The supernatant was transferred to a new 1.5 mL centrifuge tube. The protein was extracted, and the protein level of DARPP 32 was detected by Western blotting.

Row | SMILES | Relative content of p-Akt protein (ELISA, ratio to blank control group) (Phospho-Akt S473) | Relative intensity of DARPP32 protein (N171-82Q HD mice)
1 | O=c1cc(-c2ccc(N3CCCCC3)cc2)oc2c(O)c(O)ccc12 [Example 1, 7,8-dihydroxy-2-(4-(piperidin-1-yl)phenyl)-4H-chromen-4-one] | 212.00±2.122% | 96.971 ± 3.607
2 | COc1ccc2c(=O)cc(-c3ccc(N4CCCCC4)cc3)oc2c1OC [Example 2, 7,8-dimethoxy-2-(4-(piperidin-1-yl)phenyl)-4H-chromen-4-one] | 221.67±3.69% | 96.113 ± 2.681
3 | CN(C)C1CCN(c2ccc(-c3cc(=O)c4ccc(O)c(O)c4o3)cc2)CC1 [Example 3, 2-(4-(4-(dimethylamino)piperidin-1-yl)phenyl)-7,8-dihydroxy-4H-chromen-4-one] | 247.33±3.18% | 97.032 ± 3.887
4 | CC1(C)CCN(c2ccc(-c3cc(=O)c4ccc(O)c(O)c4o3)cc2)CC1 [Example 4, 2-(4-(4,4-dimethylpiperidin-1-yl)phenyl)-7,8-dihydroxy-4H-chromen-4-one] | 224.33±3.27% | 97.348 ± 3.438
5 | CC1CC(C)CN(c2ccc(-c3cc(=O)c4ccc(O)c(O)c4o3)cc2)C1 (stereo not shown) [Example 5, 2-(4-(3,5-dimethylpiperidin-1-yl)phenyl)-7,8-dihydroxy-4H-chromen-4-one] | 217.32±2.57% | 96.797 ± 3.018
